Experimental findings from ChEMBL document CHEMBL1154679, “Synthesis and biological evaluation of coumarin-based inhibitors of NAD(P)H: quinone oxidoreductase-1 (NQO1)” (J Med Chem, 2009) are described below.

Test [1] concerns the target T1, NAD(P)H dehydrogenase [quinone] 1 (Homo sapiens, UniProt P15559).
Description: Inhibition of human recombinant NQO1
Test [2] addresses T1, NAD(P)H dehydrogenase [quinone] 1. This is another data set of the same source.
Description: Inhibition of human recombinant NQO1 in presence of BSA
Test [3] has as its system MIA PaCa-2. The experiment in a line: Cytotoxicity against human MIAPaCa2 cells assessed as reduction in cell number after 24 hrs by MTT assay. It counts as functional, cell-based. Conditions: MIA PaCa-2, 24 h.
For test [4], the system named is MIA PaCa-2. The experiment in a line: Cytotoxicity against human MIAPaCa2 cells assessed as reduction in cell number after 96 hrs by MTT assay. Type of test: functional, cell-based. The note with it: MIA PaCa-2, 96 h.
For test [5], the system named is HCT-116. Kind of test: Cytotoxicity against human HCT116 cells assessed as reduction in cell number after 24 hrs by MTT assay. Type of test: functional, cell-based. The note with it: HCT-116, 24 h.
Test [6] has as its system HCT-116. The experiment in a line: Cytotoxicity against human HCT116 cells assessed as reduction in cell number after 96 hrs by MTT assay. Type of test: functional, cell-based. The note with it: HCT-116, 96 h.

T1 sequence (P15559 whole entry): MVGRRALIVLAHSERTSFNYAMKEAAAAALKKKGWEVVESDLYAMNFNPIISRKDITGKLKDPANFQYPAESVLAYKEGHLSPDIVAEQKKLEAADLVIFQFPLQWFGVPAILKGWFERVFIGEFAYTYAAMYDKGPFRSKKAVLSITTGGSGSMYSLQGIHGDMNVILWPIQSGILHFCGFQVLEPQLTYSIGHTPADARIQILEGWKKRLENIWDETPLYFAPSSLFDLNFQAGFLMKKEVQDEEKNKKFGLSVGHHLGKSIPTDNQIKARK

With `O=c1oc2ccc(Cl)cc2c(O)c1Cc1c(O)c2cc(Cl)ccc2oc1=O`, the figures for the IC50 in test [1] and in test [2] were 0.009 µM and 6.25 µM, respectively.

As for `Cc1ccc(Cc2c(O)c3cc(C)c(C)cc3oc2=O)cc1C`, the IC50 in the test on MIA PaCa-2 [3] was over 400 µM; in the test with MIA PaCa-2 [4] it was 407 µM; in the test on HCT-116 [5], over 400 µM; with HCT-116 [6] it was 176 µM.

Regarding `Cc1ccc2c(O)c(Cc3c(O)c4ccc(C)c(C)c4oc3=O)c(=O)oc2c1C`, the IC50 in the test with MIA PaCa-2 [3] is 359 µM; with MIA PaCa-2 [4], 119 µM; with HCT-116 [5], 178 µM; in the test with HCT-116 [6], 35 µM.

In the case of `COc1ccc2c(O)c(Cc3c(O)c4ccc(OC)cc4oc3=O)c(=O)oc2c1`, the IC50 with MIA PaCa-2 [3] is 448 µM; in the test with MIA PaCa-2 [4] it was 303 µM; in the test on HCT-116 [5], over 400 µM; in the test with HCT-116 [6], 187 µM.

For the molecule `COc1cccc2oc(=O)c(Cc3c(O)c4c(OC)cccc4oc3=O)c(O)c12`, the IC50 is 390 µM in the test on MIA PaCa-2 [3], 350 µM with MIA PaCa-2 [4], over 400 µM in the test with HCT-116 [5] and 80 µM in the test on HCT-116 [6].

Consider `Cc1ccc2oc(=O)c(Cc3c(O)c4cc(C)ccc4oc3=O)c(O)c2c1`, for which the IC50 in test [1] was 0.014 µM; in test [2] it was 5.5 µM.

For `Cc1cc2oc(=O)c(Cc3c(O)c4cc(C)c(C)cc4oc3=O)c(O)c2cc1C`, the IC50 turned out to be 213 µM with MIA PaCa-2 [3], 106 µM in the test on MIA PaCa-2 [4], 201 µM with HCT-116 [5] and 35 µM with HCT-116 [6].

For `COc1ccc2oc(=O)c(Cc3c(O)c4cc(OC)ccc4oc3=O)c(O)c2c1`, the half-inhibitory concentration (IC50) was determined as 300 µM in the test with MIA PaCa-2 [3]; 405 µM with MIA PaCa-2 [4]; 196 µM in the test on HCT-116 [5]; 48 µM with HCT-116 [6]; 0.011 µM in test [1]; 3.3 µM in test [2].

For the molecule `O=c1oc2ccccc2c(O)c1Cc1c(O)c2ccccc2oc1=O` [DICUMAROL], the IC50 in the test on MIA PaCa-2 [3] worked out at 90 µM; in the test on MIA PaCa-2 [4] it was 52 µM; in the test on HCT-116 [5] it was 103 µM; with HCT-116 [6] it was 19 µM.

`COc1cc2oc(=O)c(Cc3c(O)c4cc(OC)c(OC)cc4oc3=O)c(O)c2cc1OC`: the IC50 in the test on MIA PaCa-2 [3], in the test on MIA PaCa-2 [4], with HCT-116 [5] and in the test with HCT-116 [6] was over 400 µM in each case.

For the molecule `Cc1cc2oc(=O)c(Cc3ccccc3)c(O)c2cc1C`, the IC50 in the test on MIA PaCa-2 [3] is over 400 µM; in the test on MIA PaCa-2 [4] it was 267 µM; in the test with HCT-116 [5] it was over 400 µM; in the test on HCT-116 [6], 178 µM.

For the molecule `O=c1oc2ccccc2c(O)c1Cc1ccccc1`, the IC50 in test [1] was 0.144 µM; in test [2], 3.2 µM.

In the case of `Cc1cc2oc(=O)c(Cc3ccc4ccccc4c3)c(O)c2cc1C`, the IC50 in the test on MIA PaCa-2 [3] worked out at 390 µM; in the test with MIA PaCa-2 [4], 162 µM; with HCT-116 [5] it was 208 µM; in the test on HCT-116 [6] it was 180 µM.

As to `Cc1cc2oc(=O)c(Cc3cccc4ccccc34)c(O)c2cc1C`, the IC50 with MIA PaCa-2 [3] is over 400 µM; in the test on MIA PaCa-2 [4] it was 188 µM; with HCT-116 [5], 160 µM; in the test with HCT-116 [6], 56 µM.

On to `CCCC(c1c(O)c2ccccc2oc1=O)c1c(O)c2ccccc2oc1=O`, for which the values for the IC50 in test [1] and in test [2] were 0.588 µM and 5.32 µM, respectively.
